Values joined by “and” are separate entries in the source; they are usually repeats but may differ in a detail not shown here. Equal entries are not always repeated. “Also recorded” adds a separate entry of the source. Where two headings read alike, the source gives them in different places.
Tests used:
Aedes albopictus [1] = experiment: Effective dose / protection efficacy, human-bait technique; type: in vivo
Description: The repellence of DEET, Icaridin (both supplied by Istituto Biochimico VEBI s.r.l.), acetals, and the synthesized hydroxyacetals was evaluated againstAedes albopictususing the human-bait technique (to simulate the condition of human skin on which repellents will be applied).[22]A. albopictuswas reared and tested at 26 ± 2 °C, ≥60 ± 10% relative humidity (RH), and at 14:10 h light/dark photoperiod, within Plexiglas cylindrical laboratory cages (35 cm diameter, 60 cm length) with one end closed by a net. During the tests, cages contained ≈150 nulliparous, 4–7 day-old, nonblood-fed females. For each compound to be tested, up to six volunteers participated in the trial.
The study was approved by the Regional Ethics Committee for Clinical Trials of Tuscany Region with the registered number 20383. Volunteers agreed to take part in the experiments following informed consent; only volunteers non-allergic to mosquito bites participated in the trials. On the day of the bioassay, they had no contact with lotions, perfumes, oils, or perfumed soaps. They wore latex surgical gloves, in which a dorsal square area of 30 cm^2 was cut open. Mosquito-exposed skin was treated with 50 μL of ethanol, as the negative hand control. The other hand was treated with 50 μL of the tested compounds in ethanol solution (dosages corresponding to 0.081, 0.17, 0.33, 0.5, 0.83, 1.7, 8.3, 16.7, and 83.3 μg/cm^2). Both hands were presented in the same test cage. The number of probing mosquitoes in a 3 min exposure period was recorded. During each test, the control and the treated hand were presented interchanged to verify the mosquitoes’ readiness to bite. Trials were considered valid only if at least 30 mosquitoes performed probing behavior on the control hand before each repellent dosage was tested. The protection efficacy (PE %) obtained from all replicates was calculated, according to the WHO guidelines[31] using this formula [drawing 1]
To evaluate the protection efficacy, volunteers applied increasing doses of the compounds to the skin on the back of their hands (30 cm^2, while the rest was covered with a rubber glove) and counted the number of mosquitoes attempting to bite; the solvent only was used on the control hand. The protection (percentage of repelled mosquitoes) was calculated as reported in the Material and Methods section.

Aedes albopictus [2] = experiment: Protection time at 0.17 mg/cm2, human-bait technique; type: in vivo; settings: for pest or weed control at 0.17 mg/cm2, 0.17 mg/cm2: Aedes albopictus, topical, read-out: Protection time PE%
How it was run: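 Human-bait test with 100 μL of 5% ethanol solution applied to skin (0.17 mg/cm2); ethanol-treated hand as negative control. Repellency checked hourly up to 8 h on up to 8 volunteers; protection time taken as mean time with >95% protection, complete protection time estimated by Kaplan–Meier.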

HaCaT cells = experiment: Cytotoxicity on human keratinocytes (MTS); type: cell-based; settings: 82 μg/mL, 24 h
Description: HaCaT cells were cultured in 5% CO2 at 37 °C in Dulbecco’s modified Eagle’s medium (DMEM), supplemented with 10% fetal bovine serum (FBS), 1% L-glutamine ([…]), and 1% penicillin–streptomycin (Thermo Fisher Scientific, Rodano, Milan, Italy). […] Experiments were performed in triplicate.

Caco-2 monolayer = experiment: Transwell permeation test; type: in vitro ADME; settings: 82 μg/mL apical, 3 h
Description: To evaluate the possibility of absorption after topical application, we tested the permeation through a Caco-2 monolayer for those compounds best performing in terms of protection time and cytotoxicity. The colorectal adenocarcinoma cell line Caco-2 was purchased from ATCC and cultured in DMEM with 20% FBS, L-glutamine (2 mM), and 1% penicillin–streptomycin 100 U/mL (Thermo Fisher Scientific, Rodano, Milan, Italy) in 5% CO2 at 37 °C.
For the permeation studies, Caco-2 cells, a model of epithelial cells, were seeded into 12-well PET Transwell plates (1.13 cm^2 growth surface area and pore size 0.4 μm, Greiner Bio-One, Milan, Italy) at a density of 2 × 10^5 cells/cm^2 and grown for 21 days to form a confluent monolayer. The integrity of the cellular barrier was then assessed using Lucifer Yellow (LY) permeability test, before the experiments.[33]
After washing, the monolayers were preincubated for 20 min at 37 °C with 0.5 and 1.5 mL of the incubation medium, HBSS/HEPES 25 mM in the apical and basolateral sides, respectively. […] At the end of the experiment, the layer integrity was re-evaluated. […]
One hundred microliters of the collected media was extracted in 100 μL of heptane by vortexing the vial for 2 min; 70 μL of this solution was recovered; and 1 μL was injected in a 7820 GC system-5977B MSD system and analyzed under the same conditions reported in paragraph 2.2. […]

RAW 264.7 = experiment: Immunogenicity on murine macrophages (nitric oxide release); type: cell-based; settings: RAW264.7, 82 μg/mL, 6 h
Description: Cells were cultured in DMEM, with 10% FBS, 1% L-glutamine (2 mM), and 1% penicillin–streptomycin 100 U/mL at 37 °C in an atmosphere containing 5% CO2. RAW264.7 were seeded (1 × 10^5 cells/well) and exposed to five derivatives or Icaridin, at 82 μg/mL or to LPS (1 μg/mL) as a positive control, for 3 and 6 h. After that, nitric oxide release was determined in the culture media as previously described.[32] Experiments were performed in triplicate.

- permeability value lower compared to Icaridin (Caco-2 monolayer): 44%
SMILES: OCC1COC2(CCCCCCC2)O1 (stereo not shown) [12a]
- pest or weed control at 0.081 µg/cm2, 0.081 µg/cm2 (Aedes albopictus [1]; Aedes albopictus, topical, 0.081 µg/cm2, read-out: Protection efficacy PE%): 46.3%
- pest or weed control at 0.17 µg/cm2, 0.17 µg/cm2 (Aedes albopictus [1]; Aedes albopictus, topical, 0.17 µg/cm2, read-out: Protection efficacy PE%): 58.9%
- pest or weed control at 0.33 µg/cm2, 0.33 µg/cm2 (Aedes albopictus [1]; Aedes albopictus, topical, 0.33 µg/cm2, read-out: Protection efficacy PE%): 62.2%
- pest or weed control at 0.5 µg/cm2, 0.5 µg/cm2 (Aedes albopictus [1]; Aedes albopictus, topical, 0.5 µg/cm2, read-out: Protection efficacy PE%): 87%
- pest or weed control at 0.83 µg/cm2, 0.83 µg/cm2 (Aedes albopictus [1]; Aedes albopictus, topical, 0.83 µg/cm2, read-out: Protection efficacy PE%): 90.7%
- pest or weed control at 1.7 µg/cm2, 1.7 µg/cm2 (Aedes albopictus [1]; Aedes albopictus, topical, 1.7 µg/cm2, read-out: Protection efficacy PE%): 100%
- pest or weed control at 8.3 µg/cm2, 8.3 µg/cm2 (Aedes albopictus [1]; Aedes albopictus, topical, 8.3 µg/cm2, read-out: Protection efficacy PE%): 100%
- pest or weed control at 16.7 µg/cm2, 16.7 µg/cm2 (Aedes albopictus [1]; Aedes albopictus, topical, 16.7 µg/cm2, read-out: Protection efficacy PE%): 100%
- pest or weed control at 83.3 µg/cm2, 83.3 µg/cm2 (Aedes albopictus [1]; Aedes albopictus, topical, 83.3 µg/cm2, read-out: Protection efficacy PE%): 100%
- 100% PE (Aedes albopictus [1]; Table S1): 1.7 µg/cm2
- Protection efficacy (dose to obtain complete protection (100%) from bite attempts) (Aedes albopictus [1]; applied on skin of volunteers, 3 min exposure): 1.7 μg/cm^2
- pest or weed control at 0.17 mg/cm2, 0.17 mg/cm2 (Aedes albopictus [2]; 0.17mg/cm2, 1 h): 100%
- pest or weed control at 0.17 mg/cm2, 0.17 mg/cm2 (Aedes albopictus [2]; 0.17mg/cm2, 2 h): 100%
- pest or weed control at 0.17 mg/cm2, 0.17 mg/cm2 (Aedes albopictus [2]; 0.17mg/cm2, 3 h): 100%
- pest or weed control at 0.17 mg/cm2, 0.17 mg/cm2 (Aedes albopictus [2]; 0.17mg/cm2, 4 h): 100%
- pest or weed control at 0.17 mg/cm2, 0.17 mg/cm2 (Aedes albopictus [2]; 0.17mg/cm2, 5 h): 100%
- pest or weed control at 0.17 mg/cm2, 0.17 mg/cm2 (Aedes albopictus [2]; 0.17mg/cm2, 6 h): 97.1%
- pest or weed control at 0.17 mg/cm2, 0.17 mg/cm2 (Aedes albopictus [2]; 0.17mg/cm2, 7 h): 96.9%
- pest or weed control at 0.17 mg/cm2, 0.17 mg/cm2 (Aedes albopictus [2]; 0.17mg/cm2, 8 h): 100%
- Average PT >95% (% coefficient of variation) (Aedes albopictus [2]; at the dose of 0.17mg/cm2): 480 (0) min
- Estimated 100% PT (complete protection time, mean±SE) (Aedes albopictus [2]; at the dose of 0.17mg/cm2, Kaplan–Meier estimate): 380 ± 20 min
- Protection time (95% protection) (Aedes albopictus [2]; dose of 0.17 mg/cm^2, tests ended after 8 h): 8 h
- survival of keratocytes (HaCaT cells): > 88% and 100%
- immunogenicity (nitric oxide release / nitrite production), in words (RAW 264.7): did not exhibit immunogenicity; also recorded: indistinguishable from the negative control
